One assay concerns murine splenocytes. Briefly: Cytoplasmic free Ca^2+ in murine splenocytes stimulated with ConA, fluo3 flow cytometry. In kind it is cell-based, mice. The note with it: ConA stimulation after 4 min exposure. The procedure: In order to determine the effect of EF on calcium ion concentration in murine splenocytes, specific EF field exposures of 60 Hz were applied to murine splenocytes. Mice were splenectomized under anesthesia. In a 60 mm dish, the spleen was injected with PBS (phosphate buffered saline including 0.083% NH4Cl). The cells were re-suspended and maintained in Hank's balanced salt solution (HBSS) (SIGMA, MO, USA), during examination for [Ca^2+ ]c, which was carried out within 4 hours after cell preparation. Cells were stored at 4° C. prior to use.
The application of a 60 Hz EF to splenocyte cells created applied current densities of 6, 20, 60, and 200 μA/cm^2. Splenocyte cells were exposed to these conditions for 4 minutes, after which exposure the splenocyte samples were stimulated with Concanavalin A (ConA). Following stimulation of splenocytes with ConA, cytoplasmic free Ca^2+ concentration was determined by fluo3 flow cytometry.

In a further assay the test system is mouse splenocytes. The assay is described as follows: [Ca^2+]c-high cells in lectin-stimulated mouse splenocytes, fluo-3 flow cytometry. Type of assay: cell-based, BALB/c mice. The procedure:
In order to avoid contact of the cells and the lower electrode, polycarbonate membrane (Isopore, MILLIPORE, MA USA) was placed between the dish and the insert. Approximately 1 ml of the cell suspension was poured into culture well/space and covered with a lid.
Female BALB/c mice, 4-7 wk old obtained from CLEA Inc. (Tokyo, Japan) maintained in a conventional animal house equipped with clean air-filtering device were splenectomized under anesthesia, and cell suspensions of splenocytes were prepared. To examine cell viability, the cells were cultivated in Dulbecco's modified Eagle's medium (SIGMA, MO, USA) supplemented with 10% fetal bovine serum (FSB). The cells were maintained in Hank's balanced salt solution (HBSS) (SIGMA, MO, USA) during examination for [Ca^2+]c which was carried out within 4 hr after cell preparation. Cells were stored at 4 degree C. prior to use.
Splenocytes (10^6 cells/ml) were incubated for 20 min at 37 degrees C. in HBSS containing 2.5 μM fluo-3-acetoxylmethyl (Molecular Probes, USA) [Vandenberghe et al., 1990]. The cell suspension was then diluted 5 times with HBSS containing 1% FBS, incubated for 40 min at 37 degrees C., washed 3 times with assay buffer, and the cells were then suspended in the assay buffer at a concentration of 1×10^6/ml. Throughout the cell preparation, the cell suspensions were mixed gently.
Considering the reported synergistic interaction between EMF and mitogen (Walleczek and Liburdy, 1990), concanavalin-A (Con-A) (Seikagaku Co., Tokyo, Japan) and phytohemaglutinin (PHA) (SIGMA, MO, USA) were used.
Taking into account the results of the viability test for exposed murine splenocytes earlier assayed, we chose to use the optimum culture and exposure conditions (60 Hz, 6 μA/cm^2 EF) in carrying out the following five experiments: • (1) cells suspended in HEPES-buffered saline (BS)+1 mM CaCl2 were exposed to EF for a total of 40 min, and 12.5 μg/ml of Con-A was added after the first 8 min of exposure. The control groups consisted of EF-unexposed cells containing Con-A, and EF-exposed cells without Con-A. Percent [Ca^2+]c-high cells was checked at certain exposure points; • (2) cells in HEPES-BS+1 mM CaCl2 were exposed for a total of 12 min, and different concentrations (1 ng-12.5 μg/ml) of Con-A were added after the first 4 min of exposure. The control group was essentially the same as that of the experimental group but without EF-exposure; • (3) cells in HEPES-BS+1 mM CaCl2 were exposed for a total of 8 min, and 5 μg/ml of PHA was added after the first 4 min of exposure. The control groups consisted of EF-unexposed cells containing PHA, and EF-exposed cells without PHA; • (4) cells suspended in HEPES-BS without CaCl2 were exposed for a total of 12 min, and different concentrations (1 ng-5 μg/mil) of Con-A were added after the first 4 min of exposure. The control group was essentially the same as the experimental group but without EF exposure; and • (5) to evaluate the persistent effect of EF exposure, cells suspended in HEPES-BS+[…] were exposed for a total of 4 min, after which different concentrations (0.025-12.5 μg/ml) of Con-A were added, and the generation of [Ca^2+]c-high cells for the next 8 min without EF exposure was monitored with flow cytometry. The control was essentially the same as the experimental group but without any EF-exposure. Statistical Analysis
In general terms: In flow cytometry, cells or beads pass a laser one at a time.

The next assay deals with ovariectomized rats. The following applies: restraint, after 60 min session, n=6.
The test system of assay [1] is BALB 3T3/A31 fibroblast/embryo cells. The assay is described as follows: Membrane potential of BALB 3T3 cells, DiBAC intensity. Type of assay: cell-based, murine. The following applies: final concentration of 0.4 mM A23187. The procedure:
A23187 is a monocarboxylic acid extracted from Streptomyces chartreusensis that acts as a mobile-carrier calcium ionophore. DiBAC is a fluorescent dye that enters the cell membrane when the membrane's potential changes. Thus, when the membranes of the BALB 3T3 cells depolarize, the DiBAC enters those membranes thereby increasing the intensity of the DiBAC signal (Y-axis) in the BALB 3T3 cells.
The changes in membrane potential were measured with flow cytometry. The methodology for the flow cytometry was as follows. Culture in DMEM was supplemented with 5% FCS 10 mM HEPES. It was then de-touched with 0.02% trypsin and 0.025% EDTA. […] It was then loaded with DiBAC4(3) of a final concentration of 200 nM. It was incubated at 37 degree C. for >5 min. Then the flow cytometry measurements were performed.

Assay [2] addresses T1, human calcium receptor protein (HuPCaR) (Homo sapiens, UniProt P41180).
T1 construct: expressed in transfected cells; host or cells: HEK (human embryonic kidney) cells, stably transfected
T1 sequence (P41180 20-1078): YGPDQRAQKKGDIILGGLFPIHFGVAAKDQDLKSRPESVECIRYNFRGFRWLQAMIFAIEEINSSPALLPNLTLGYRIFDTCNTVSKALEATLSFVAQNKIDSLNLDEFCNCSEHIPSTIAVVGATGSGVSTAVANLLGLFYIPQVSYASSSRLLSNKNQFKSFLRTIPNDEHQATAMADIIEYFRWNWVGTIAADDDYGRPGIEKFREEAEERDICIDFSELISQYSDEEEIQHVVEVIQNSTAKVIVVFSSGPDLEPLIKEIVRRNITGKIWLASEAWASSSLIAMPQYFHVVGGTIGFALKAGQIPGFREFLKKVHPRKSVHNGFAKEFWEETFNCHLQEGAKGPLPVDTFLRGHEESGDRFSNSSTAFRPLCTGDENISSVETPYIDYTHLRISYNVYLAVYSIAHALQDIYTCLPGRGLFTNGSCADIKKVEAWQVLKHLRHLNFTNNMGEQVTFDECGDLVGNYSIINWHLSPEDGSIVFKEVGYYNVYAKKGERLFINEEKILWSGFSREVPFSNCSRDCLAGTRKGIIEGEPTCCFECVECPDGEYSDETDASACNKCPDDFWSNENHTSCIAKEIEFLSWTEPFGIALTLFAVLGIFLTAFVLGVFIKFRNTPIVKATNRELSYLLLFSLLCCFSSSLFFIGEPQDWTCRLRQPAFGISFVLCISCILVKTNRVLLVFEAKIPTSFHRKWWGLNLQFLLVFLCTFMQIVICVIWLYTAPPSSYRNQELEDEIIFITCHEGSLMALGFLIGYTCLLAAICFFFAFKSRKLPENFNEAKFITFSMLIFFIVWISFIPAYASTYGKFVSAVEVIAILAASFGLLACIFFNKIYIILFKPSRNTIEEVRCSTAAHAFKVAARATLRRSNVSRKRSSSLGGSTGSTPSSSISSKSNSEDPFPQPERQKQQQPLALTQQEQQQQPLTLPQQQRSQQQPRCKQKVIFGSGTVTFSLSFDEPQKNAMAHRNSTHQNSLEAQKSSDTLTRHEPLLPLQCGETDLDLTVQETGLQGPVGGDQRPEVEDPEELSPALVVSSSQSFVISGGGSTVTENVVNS
The assay is described as follows: FURA2 ratio fluorimetry of HuPCaR cells on stepwise additions of extracellular CaCl2. Type of assay: cell-based. The procedure:
In selected experiments, ionomycin (1 micromolar final concentration-stock dissolved in dimethyl sulfoxide) was added in order to quantify differences in FURA2 ratio fluorescence. Ionomycin was added to the cells to obtain a maximal fluorescence signal from the FURA2 for purposes of quantification. FIG. 15 outlines the experimental system that was utilized to obtain the data described below. Cultured HEK or HuPCaR cells were loaded with FURA2 after their growth on plastic tissue culture dishes, scraped and rinsed in buffer to create a cell suspension that was then divided into various aliquots. Selected aliquots were exposed to EF in the EF exposure device. Subsequent to either EF exposure or sham control (no EF) treatments, aliquots of cells were used for standard ratio imaging fluorimetry analysis to measure changes in intracellular Ca^2+ concentrations. Initially, measurements were obtained of the baseline intracellular Ca^2+ concentration for each aliquot of cells as shown by the bracket marked #1 in FIG. 15. […] In an effort to obtain more quantitative data from individual aliquots within an individual experiment as well as comparison of data from different experiments, we incorporated the use of ionomycin as shown in FIG. 13 to determine the maximal FURA2 signal achievable within each aliquot of cells. […]

Read-outs that look alike come from different tables or passages of the source.

Method for ovariectomized rats: Rats were restricted by wrapping each with a thin polycarbonate sheet and laying it over the lower electrode for 30 min.
To examine the effect of exposure to EF, we used normal and ovariectomized rats. Normal rats were divided into two groups of restraint alone and restraint plus EF.
Ovariectomies were performed 4 weeks before experimentation. EF exposure and restraint treatment applied in this study were as follows: Rats were exposed to 50 Hz, 17,500 V/m EF for a total of 1 hr. Rats were restrained with thin polycarbonate sheeting for the latter half of the EF exposure period. The experimental design in the control groups was the same as in the experimental group except for the absence of EF exposure. […]
Hematological analyses including red and white blood cell count, platelet count, hematocrit and hemoglobin levels were performed using an automatic multi-hemocytometer (Sysmec CC-78, Sysmec inc., Tokyo, Japan). Plasma glucose, lactate and pyruvate levels were measured with an automatic analyzer (7170 Hitachi, Hitachi Co. ltd., Tokyo, Japan). ACTH levels were measured by using an ACTH radio immunoassay kit (ACTH IRMA, MITSUBISHI CHEMICAL Co. Ltd.) and a gamma counter (Auto-Gamma 5530 Gamma Counting System, Packard Instrument Co. ltd.). Plasma corticosterone level was measured using a commercial kit (ImmuChem Double Antibody Corticosterone kit, ICN Biomedicals Inc.). […]

Take concanavalin-A [Con-A]: in the assay with murine splenocytes, the “Calcium concentration in the splenocyte cells” value was “increased”. For the same compound, in the assay on mouse splenocytes (12.5 μg/ml Con-A), the “Time post-Con-A stimulation of decline in [Ca^2+]c-high cells” value is on record as “approximately 4 min” and the “Time to saturation point of Con-A-induced response after addition of the mitogen” value was 5 to 8 min. Besides, the “Number of [Ca^2+]c-high cells” value with mouse splenocytes (12.5 μg/ml Con-A, 1 mM CaCl2, EF-exposed and unexposed cell suspensions) is reported as “increased significantly”. For the same compound, the “[Ca^2+]c-high cells compared to cells stimulated with 0.025 μg/ml of Con-A” value with mouse splenocytes (3.125-12.5 μg/ml Con-A, unexposed or earlier exposed to EF for 4 min) was “significant increase”. In the assay on mouse splenocytes (3.125 and 6.25 μg/ml Con-A), the “Time post-Con-A stimulation at which sustained increase in [Ca^2+]c-high cells leveled off” value is “about 8 min”. Besides, the “Con-A-dependent [Ca^2+]c rise” value in the assay on mouse splenocytes (Ca^2+-free cell condition, control and EF-exposed groups) is on record as “negligible”.

As for `CN1C(=O)CN=C(c2ccccc2)c2cc(Cl)ccc21` [diazepam], the WBC counts with ovariectomized rats is 85 ×10^2 cells/μl.

`CNc1ccc2oc(C[C@H]3O[C@@]4(CC[C@H]3C)O[C@H]([C@H](C)C(=O)c3ccc[nH]3)[C@H](C)C[C@H]4C)nc2c1C(=O)O` [A23187]: the “Membrane potential (DiBAC intensity)” value in assay [1] is “alters the membrane potential”.

In the case of `[Ca+2].[Cl-].[Cl-]` [Ca^2+, CaCl2], the EC50 (commonly the concentration needed to bring the measured effect to its halfway point) in assay [2] (FURA2 response method of Quinn et al., read-out: EC50 value for Ca^2+ derived using the method outlined in FIG. 20) was 3.5 mM; in assay [2] (calculated from Na+/Ca2+ ratio midpoint 36.6, Standard Experimental Buffer of 125 mM NaCl, FURA2 baseline, read-out: EC50 value for Ca), 3.5 mM.

The values are drawn from patent publication US20050187581A1, “Methods of treating disorders with electric fields” (priority 2000, published 2005).
